This note sets out measurements from ChEMBL document CHEMBL1201862, “PubChem BioAssay data set” (2004).

Activity calls are given as the source filed them. A value given as a limit tells only on which side of the number the result lay.

In experiment [1] the target is T1, Polyadenylate-binding protein 1 (Homo sapiens, UniProt P11940). Briefly: MLLE domain peptide-binding blockers, IC50 – biochemical, fluorescence polarization, FITC-PAM2 peptide, dose response (AID 602259). As to conditions: read-out: IC50_Mean. The class given is functional.
Experiment [2] deals with DNA dC->dU-editing enzyme APOBEC-3G (Homo sapiens, UniProt Q9HC16). Briefly: Dose Response confirmation of small molecule APOBEC3G DNA Deaminase Inhibitors via a fluorescence-based single-stranded DNA deaminase assay. [Related pubchem assays (depositor defined):AID493012, AID493028]. The class given is functional.
For a further experiment, the target named is T2, Hexokinase HKDC1 (Homo sapiens, UniProt Q2TB90).
T2 sequence (Q2TB90 whole entry): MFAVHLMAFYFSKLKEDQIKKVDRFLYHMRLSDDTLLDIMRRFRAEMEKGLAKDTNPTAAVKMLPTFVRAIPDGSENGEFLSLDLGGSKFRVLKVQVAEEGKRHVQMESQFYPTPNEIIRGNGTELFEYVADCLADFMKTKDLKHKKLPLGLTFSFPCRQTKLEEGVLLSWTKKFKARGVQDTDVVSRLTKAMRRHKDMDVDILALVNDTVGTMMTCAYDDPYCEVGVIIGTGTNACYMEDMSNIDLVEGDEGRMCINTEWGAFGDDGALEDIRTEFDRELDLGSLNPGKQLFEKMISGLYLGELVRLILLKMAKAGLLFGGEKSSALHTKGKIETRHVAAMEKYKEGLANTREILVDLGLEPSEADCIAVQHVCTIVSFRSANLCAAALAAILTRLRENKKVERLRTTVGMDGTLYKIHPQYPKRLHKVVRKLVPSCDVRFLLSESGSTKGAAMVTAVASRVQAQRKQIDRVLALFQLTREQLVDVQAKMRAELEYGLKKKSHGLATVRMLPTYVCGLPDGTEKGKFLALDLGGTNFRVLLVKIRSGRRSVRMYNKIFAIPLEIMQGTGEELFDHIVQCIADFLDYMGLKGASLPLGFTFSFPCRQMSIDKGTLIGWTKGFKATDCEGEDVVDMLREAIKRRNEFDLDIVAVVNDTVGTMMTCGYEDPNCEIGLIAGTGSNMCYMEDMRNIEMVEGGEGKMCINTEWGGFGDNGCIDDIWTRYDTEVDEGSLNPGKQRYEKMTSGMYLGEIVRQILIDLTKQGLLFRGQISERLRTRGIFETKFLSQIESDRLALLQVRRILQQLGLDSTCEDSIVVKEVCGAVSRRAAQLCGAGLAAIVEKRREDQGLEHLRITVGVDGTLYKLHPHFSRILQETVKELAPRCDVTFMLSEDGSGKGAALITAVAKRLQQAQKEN
Briefly: activation of HKDC1 glucose phosphorylation – biochemical, W721R variant, dose response (AID 504730). The class given is functional.

In experiment [3] the target is T1, Polyadenylate-binding protein 1. Put plainly: MLLE binding blockers, Cy5 peptide tracer – biochemical, fluorescence polarization, Cy5-PAM2 peptide, secondary, miRNA deadenylation inhibitor project, dose response (AID 602260). Format: functional. Particulars: read-out: IC50_Mean.
The target of experiment [4] is Eukaryotic translation initiation factor 4E (Mus musculus, UniProt P63073). Briefly: blockers of eIF4G binding by eIF4E – biochemical, TR-FRET, dose response (AID 855).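 Note: potency for disrupting eIF4E binding to eIF4GI seen as loss of FRET.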 Format: functional.
Another experiment addresses T3, Hexokinase-1 (Homo sapiens, UniProt P19367).
T3 sequence (P19367 whole entry): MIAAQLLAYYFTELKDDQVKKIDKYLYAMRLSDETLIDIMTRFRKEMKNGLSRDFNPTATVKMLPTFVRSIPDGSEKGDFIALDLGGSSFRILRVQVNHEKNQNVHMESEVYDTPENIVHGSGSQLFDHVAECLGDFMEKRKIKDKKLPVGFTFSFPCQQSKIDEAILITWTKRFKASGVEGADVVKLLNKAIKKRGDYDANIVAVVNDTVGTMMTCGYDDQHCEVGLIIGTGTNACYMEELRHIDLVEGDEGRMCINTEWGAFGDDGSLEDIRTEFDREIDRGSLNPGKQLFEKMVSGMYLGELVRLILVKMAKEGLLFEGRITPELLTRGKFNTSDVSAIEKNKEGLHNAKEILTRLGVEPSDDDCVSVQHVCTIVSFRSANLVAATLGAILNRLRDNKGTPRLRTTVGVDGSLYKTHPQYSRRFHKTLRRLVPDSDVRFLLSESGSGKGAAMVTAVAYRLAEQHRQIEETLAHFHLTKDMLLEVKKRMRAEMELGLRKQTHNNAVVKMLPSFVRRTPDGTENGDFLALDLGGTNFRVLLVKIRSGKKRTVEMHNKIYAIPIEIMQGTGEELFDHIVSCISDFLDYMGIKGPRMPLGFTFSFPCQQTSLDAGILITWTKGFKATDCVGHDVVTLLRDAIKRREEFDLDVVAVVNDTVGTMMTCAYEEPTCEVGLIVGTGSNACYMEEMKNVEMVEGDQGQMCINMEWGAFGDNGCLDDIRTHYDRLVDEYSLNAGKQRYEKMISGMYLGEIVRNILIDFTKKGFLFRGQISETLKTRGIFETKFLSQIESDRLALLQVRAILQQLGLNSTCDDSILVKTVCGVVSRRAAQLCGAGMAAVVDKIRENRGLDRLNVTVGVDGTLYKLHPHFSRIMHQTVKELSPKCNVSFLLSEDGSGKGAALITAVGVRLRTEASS
Put plainly: HK1 enzyme activation by HKDC1 hits – biochemical, selectivity assay for HKDC1 activator project, dose response (AID 504762). Format: functional.

The target of the next experiment is Troponin, cardiac muscle (Homo sapiens, UniProt P19429+P45379+P63316). Briefly: Fluorescence-based biochemical high throughput dose response assay for activators of the calcium sensitivity of cardiac Regulated Thin Filaments (RTF). [Related pubchem assays (depositor defined):AID493008, AID493018, AID504382, AID504383]. The class given is protein-complex assay.

Experiment [5] has as its target T4, DNA repair and recombination protein RAD54-like (Homo sapiens, UniProt Q92698).
T4 sequence (Q92698 whole entry): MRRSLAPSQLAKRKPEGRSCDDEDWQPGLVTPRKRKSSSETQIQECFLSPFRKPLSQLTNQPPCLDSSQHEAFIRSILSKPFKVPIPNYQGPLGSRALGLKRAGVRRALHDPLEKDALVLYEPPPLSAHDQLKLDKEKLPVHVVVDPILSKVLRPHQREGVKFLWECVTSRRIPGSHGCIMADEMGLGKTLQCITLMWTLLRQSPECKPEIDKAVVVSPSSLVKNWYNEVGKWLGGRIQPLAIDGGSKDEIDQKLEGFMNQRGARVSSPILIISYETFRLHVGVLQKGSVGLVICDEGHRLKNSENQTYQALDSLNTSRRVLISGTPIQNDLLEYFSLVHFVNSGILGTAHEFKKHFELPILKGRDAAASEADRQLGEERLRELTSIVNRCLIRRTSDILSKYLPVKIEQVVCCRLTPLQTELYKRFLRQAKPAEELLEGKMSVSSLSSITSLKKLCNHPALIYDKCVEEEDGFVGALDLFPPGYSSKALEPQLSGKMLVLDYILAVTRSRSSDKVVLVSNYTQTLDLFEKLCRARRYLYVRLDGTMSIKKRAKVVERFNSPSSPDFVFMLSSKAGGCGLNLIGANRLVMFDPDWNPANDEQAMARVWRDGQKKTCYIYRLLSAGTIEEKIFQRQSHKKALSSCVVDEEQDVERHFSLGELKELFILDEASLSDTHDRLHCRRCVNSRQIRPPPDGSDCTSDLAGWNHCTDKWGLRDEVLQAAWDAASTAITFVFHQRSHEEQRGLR
Briefly: RAD54 Holliday junction migration blockers – biochemical, fluorescence, cherry-picked samples, dose series, confirmation (AID 651657). The class given is functional.

The target of experiment [6] is T5, Runt-related transcription factor 1/Core-binding factor subunit beta (Homo sapiens, UniProt Q01196+Q13951). Briefly: disruptors of Runt domain/CBFb-SMMHC interaction – biochemical, FRET, Cerulean-Runt, Venus-CBFb-SMMHC, uHTS, […] (AID 1434). The class given is protein assay.
The target in experiment [7] is T5, Runt-related transcription factor 1/Core-binding factor subunit beta. Put plainly: Runt domain/CBFb-SMMHC interaction disruptors – biochemical, TR-FRET (AID 1438). Format: protein assay.
The target in experiment [8] is T6, Aryl hydrocarbon receptor (Homo sapiens, UniProt P35869).
T6 sequence (P35869 whole entry): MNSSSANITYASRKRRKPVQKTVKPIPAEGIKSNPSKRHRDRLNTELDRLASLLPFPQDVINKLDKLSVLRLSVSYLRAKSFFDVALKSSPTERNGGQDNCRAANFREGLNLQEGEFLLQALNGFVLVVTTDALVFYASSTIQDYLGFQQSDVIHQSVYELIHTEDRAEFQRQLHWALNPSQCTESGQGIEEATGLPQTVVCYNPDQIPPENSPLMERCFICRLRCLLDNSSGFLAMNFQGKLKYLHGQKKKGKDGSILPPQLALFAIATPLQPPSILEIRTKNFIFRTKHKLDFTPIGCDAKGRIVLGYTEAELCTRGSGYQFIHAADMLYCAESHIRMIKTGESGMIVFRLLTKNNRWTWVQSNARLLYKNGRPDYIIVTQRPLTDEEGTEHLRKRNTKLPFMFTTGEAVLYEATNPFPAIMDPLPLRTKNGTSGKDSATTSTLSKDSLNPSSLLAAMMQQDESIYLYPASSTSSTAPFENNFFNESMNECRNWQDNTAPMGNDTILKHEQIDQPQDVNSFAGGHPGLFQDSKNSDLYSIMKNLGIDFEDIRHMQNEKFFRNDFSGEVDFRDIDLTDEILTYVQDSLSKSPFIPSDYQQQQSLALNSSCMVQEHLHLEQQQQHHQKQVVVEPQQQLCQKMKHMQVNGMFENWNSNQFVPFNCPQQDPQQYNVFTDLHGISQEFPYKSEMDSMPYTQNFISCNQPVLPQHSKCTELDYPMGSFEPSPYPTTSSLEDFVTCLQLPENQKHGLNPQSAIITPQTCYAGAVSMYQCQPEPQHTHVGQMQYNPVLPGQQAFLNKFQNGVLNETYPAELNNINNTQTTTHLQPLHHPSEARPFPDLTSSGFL
Put plainly: Luminescence-based cell-based high throughput dose response assay for activators of the Aryl Hydrocarbon Receptor (AHR). [Related pubchem assays: 2796 (Primary screen (AHR activators in singlicate)), 2845 (Confirmation screen (AHR activators in triplicate)), 434939 (Counterscreen (PXR activators in triplicate)), 2804 (Summary (AHR activators))]. The class given is ADME.

Experiment [9] deals with DNA damage-inducible transcript 3 protein (Mus musculus, UniProt P35639). The class given is functional, Cricetulus griseus.

For `CCOC(=O)c1c(NC(=O)CSc2nnnn2-c2ccc(OC)cc2)sc(C)c1C`, the IC50 is > 66 µM (inactive) in experiment [1], 54.7 µM (active) in experiment [2], > 66 µM (inactive) in [3] and > 64 µM (inactive) in experiment [4]. The EC50 is > 80 µM (inactive) at Hexokinase HKDC1 and 37.4 µM (inactive) on Hexokinase-1.
Regarding `CC(=O)Nc1ccc2cc3ccc(NC(C)=O)cc3nc2c1`, the EC50 is 38.3 µM (inactive) on Troponin, cardiac muscle and > 3.39 µM (active) in experiment [8]. Also, the half-maximal activity concentration (AC50) in [5] was 86.2 µM (active). Besides, the values for the IC50 in experiment [6] and in experiment [7] were 14.1 µM (active) and > 100 µM (inactive), respectively.
In the case of `C/C(=N\NC(=O)c1nn(C)c(C)c1Br)c1ccc(NC(=O)c2ccoc2C)cc1`, the “Absolute IC50 (CHOP)” value in experiment [9] amounted to 10 µM.
